One experiment concerns the target T1, human B1R receptor (Homo sapiens, UniProt P46663).
T1 construct: host or cells: CHO K1 cells (Chinese hamster ovary), stably transfected
T1 sequence (P46663 1-353): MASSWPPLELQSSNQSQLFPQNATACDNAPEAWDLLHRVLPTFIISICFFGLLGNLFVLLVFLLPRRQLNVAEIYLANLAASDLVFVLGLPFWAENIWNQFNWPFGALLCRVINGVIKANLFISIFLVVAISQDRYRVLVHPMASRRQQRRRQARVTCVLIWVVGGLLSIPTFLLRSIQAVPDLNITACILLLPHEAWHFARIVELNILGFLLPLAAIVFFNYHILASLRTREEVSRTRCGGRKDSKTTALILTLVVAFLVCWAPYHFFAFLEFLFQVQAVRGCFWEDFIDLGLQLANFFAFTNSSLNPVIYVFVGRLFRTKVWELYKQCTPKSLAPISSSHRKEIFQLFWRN
The experiment can be described thus: Functional study on the bradykinin receptor 1 (B1R), FLIPR Ca2+ assay, hB1R cells. Format: cell-based. The following applies: CHO-K1, test substance 10 μM, agonist Lys-Des-Arg9-bradykinin 0.5 nM, % inhibition compared with the maximum achievable inhibition, read-out: B1R Antagonism, human [10 μM] % Inhibition. As for the experimental part:
(§1) The agonistic or antagonistic action of substances can be quantified on the bradykinin receptor 1 (B1R) of the species human and rat with ectopically expressing cell lines (CHO K1 cells) and with the aid of a Ca^2+-sensitive dye (Fluo-4) using a fluorescent imaging plate reader (FLIPR). The indication in % activation is based on the Ca^2+ signal after addition of Lys-Des-Arg^9-bradykinin (0.5 nM) or Des-Arg^9-bradykinin (100 nM). Antagonists result in a suppression of the Ca^2+ influx following administration of the agonist. The % inhibition in comparison with the maximum achievable inhibition is indicated.
(§2) The agonistic or antagonistic action of substances can be determined on the bradykinin receptor 1 (B1R) of the species human and rat using the following assay. According to this assay, the Ca^2+ influx through the channel is quantified with the aid of a Ca^2+-sensitive dye (type Fluo-4, Molecular Probes Europe BV, Leiden, Netherlands) using a Fluorescent Imaging Plate Reader (FLIPR, Molecular Devices, Sunnyvale, USA).
(§3) Chinese hamster ovary cells (CHO K1 cells) which have been stably transfected with the human B1R gene (hB1R cells, Euroscreen s.a., Gosselies, Belgium) or with the B1R gene of the rat (rB1R cells, Axxam, Milan, Italy) are used. For functional studies, the cells are plated out on black 96-well plates having a clear base (BD Biosciences, Heidelberg, Germany) in a density of 20,000-25,000 cells/well. The cells are incubated overnight at 37° C. and with 5% CO2 in culture medium (hB1R cells: Nutrient Mixture Ham's F12, Gibco Invitrogen GmbH, Karlsruhe, Germany; rB1R cells: D-MEM/F12, Gibco Invitrogen GmbH, Karlsruhe, Germany), with 10 vol. % FBS (fetal bovine serum, Gibco Invitrogen GmbH, Karlsruhe, Germany). On the following day, the cells are loaded for 60 minutes at 37° C. with 2.13 μM Fluo-4 (Molecular Probes Europe BV, Leiden, Netherlands) in HBSS buffer (Hank's buffered saline solution, Gibco Invitrogen GmbH, Karlsruhe, Germany) […] (Sigma-Aldrich, Taufkirchen, Germany) and 10 mM HEPES (Sigma-Aldrich, Taufkirchen, Germany). The plates are then washed twice with HBSS buffer, and HBSS buffer additionally containing 0.1% BSA (bovine serum albumin; Sigma-Aldrich, Taufkirchen, Germany), 5.6 mM glucose and 0.05% gelatin (Merck KGaA, Darmstadt, Germany) is added to the plates. After incubation for a further 20 minutes at room temperature, the plates are inserted into the FLIPR for Ca^2+ measurement. The Ca^2+-dependent fluorescence is measured before and after the addition of substances (λex=488 nm, λem=540 nm). Quantification is carried out by measuring the highest fluorescence intensity (FC, fluorescence counts) over time.
(§4) The FLIPR protocol consists of 2 substance additions. Test substances (10 μM) are first pipetted onto the cells and the Ca^2+ influx is compared with the control (hB1R: Lys-Des-Arg^9-bradykinin 0.5 nM; rB1R: Des-Arg^9-bradykinin 100 nM). This gives the activation in %, based on the Ca^2+ signal after addition of Lys-Des-Arg^9-bradykinin (0.5 nM) or Des-Arg^9-bradykinin (100 nM).
(§5) After 10 minutes' incubation, 0.5 nM Lys-Des-Arg^9-bradykinin (hB1R) or 100 nM Des-Arg^9-bradykinin (rB1R) are applied, and the influx of Ca^2+ is likewise determined. Antagonists lead to suppression of the Ca^2+ influx. The % inhibition compared with the maximum achievable inhibition is calculated.

A further experiment addresses T2, B1R receptor of the rat (Rattus norvegicus, UniProt P97583).
T2 construct: host or cells: CHO K1 cells (Chinese hamster ovary), stably transfected
T2 sequence (P97583 1-337): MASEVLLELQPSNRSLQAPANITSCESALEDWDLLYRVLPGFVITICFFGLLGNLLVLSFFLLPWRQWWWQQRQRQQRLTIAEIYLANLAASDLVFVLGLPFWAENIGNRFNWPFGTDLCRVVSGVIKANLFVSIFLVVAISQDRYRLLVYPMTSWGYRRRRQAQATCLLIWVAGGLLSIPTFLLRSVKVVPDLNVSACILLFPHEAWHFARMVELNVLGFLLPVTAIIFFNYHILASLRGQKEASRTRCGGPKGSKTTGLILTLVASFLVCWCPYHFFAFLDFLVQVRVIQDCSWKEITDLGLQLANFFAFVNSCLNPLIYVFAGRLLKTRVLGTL
Put plainly: Functional study on the bradykinin receptor 1 (B1R), FLIPR Ca2+ assay, rB1R cells. Type of experiment: cell-based. The following applies: CHO-K1, test substance 10 μM, agonist Des-Arg9-bradykinin 100 nM, % inhibition compared with the maximum achievable inhibition, read-out: B1R Antagonism, rat [10 μM] % Inhibition. As for the experimental part: as §1, §2, §3, §4, §5

Where a name gives a salt, the structure may show the parent alone.

For the molecule `COc1cc(C)c(S(=O)(=O)N2CCCCC2COCC(=O)NCCN2CCN(Cc3ccccc3)CC2)c(C)c1` (stereo not shown) [Example 401, N-(2-(4-benzylpiperazin-1-yl)ethyl)-2-((1-(4-methoxy-2,6-dimethylphenylsulfonyl)piperidin-2-yl)methoxy)acetamide], the inhibition – broadly, the change of the read-out against control, counted positive when it falls – at 10 µM was 90.8% on human B1R receptor and 95.6% at B1R receptor of the rat.
The like results for `Cc1ccc2[nH]c(C3CCN(C(=O)COCC4CCCCN4S(=O)(=O)c4c(Cl)cccc4Cl)CC3)nc2c1` (stereo not shown) [Example 487, 2-((1-(2,6-dichlorophenylsulfonyl)piperidin-2-yl)methoxy)-1-(4-(5-methyl-1H-benzo[d]imidazol-2-yl)piperidin-1-yl)ethanone] were, in that order, 101% and 99.1%.
For `CCn1nccc1NC(=O)COCC1CCCCN1S(=O)(=O)c1c(C)cc(OC)cc1C` (stereo not shown) [Example 257, N-(1-ethyl-1H-pyrazol-5-yl)-2-((1-(4-methoxy-2,6-dimethylphenylsulfonyl)piperidin-2-yl)methoxy)acetamide], the figures for the inhibition at 10 µM on human B1R receptor and at B1R receptor of the rat were 34.3% and 99.9%, respectively.
For `O=C(COCC1Cc2ccccc2CN1S(=O)(=O)c1ccc(Cl)c(Cl)c1)N1CCCC1CN1CCCCC1` (stereo not shown) [Example 82, 2-[2-(3,4-dichloro-phenylsulfonyl)-1,2,3,4-tetrahydro-isoquinolin-3-ylmethoxy]-1-(2-piperidin-1-ylmethyl-pyrrolidin-1-yl)-ethanone] the same measures were 44.9% and 4.42%.
On to `Cc1cc(S(=O)(=O)N2CCCCC2COCC(=O)N2CCN(C3CCN(C)CC3)CC2)c(C)cc1Cl` (stereo not shown) [Example 114, 2-((1-(4-chloro-2,5-dimethylphenylsulfonyl)piperidin-2-yl)methoxy)-1-(4-(1-methylpiperidin-4-yl)piperazin-1-yl)ethanone dihydrochloride], for which the inhibition at 10 µM was 102% at human B1R receptor and 103% on B1R receptor of the rat.
For the molecule `COc1cc(C)c(S(=O)(=O)N2CCCCC2COCC(=O)NCc2ccc(CN(C)C)cc2)c(C)c1` (stereo not shown) [Example 11, N-(4-dimethylaminomethyl-benzyl)-2-[1-(4-methoxy-2,6-dimethyl-phenylsulfonyl)-piperidin-2-ylmethoxy]-acetamide], the inhibition at 10 µM at human B1R receptor is 99.6%; on B1R receptor of the rat, 106%.
For the molecule `CC(C)N(Cc1ccc(N(C)C)cc1)C(=O)COCC1CCCCN1S(=O)(=O)c1c(Cl)cccc1Cl` (stereo not shown) [Example 530, 2-((1-(2,6-dichlorophenylsulfonyl)piperidin-2-yl)methoxy)-N-(4-(dimethylamino)benzyl)-N-isopropylacetamide], the inhibition at 10 µM was 93.1% at human B1R receptor and 101% on B1R receptor of the rat.
On to `CC(C)N(CCN1CCN(C(=O)COCC2CCCN2S(=O)(=O)c2c(Cl)cc(Cl)cc2Cl)CC1)C(C)C` (stereo not shown) [Example 333, 1-(4-(2-(diisopropylamino)ethyl)piperazin-1-yl)-2-((1-(2,4,6-trichlorophenylsulfonyl)pyrrolidin-2-yl)methoxy)ethanone], for which the figures for the inhibition at 10 µM at human B1R receptor and at B1R receptor of the rat were 107% and 101%, respectively.
For `COc1ccc(S(=O)(=O)N2Cc3ccccc3C[C@H]2COCC(=O)N2CCN(CC3CCN(C)CC3)CC2)cc1` [Example 189, (S)-2-((2-(4-methoxyphenylsulfonyl)-1,2,3,4-tetrahydroisoquinolin-3-yl)methoxy)-1-(4-((1-methylpiperidin-4-yl)methyl)piperazin-1-yl)ethanone dihydrochloride], the inhibition at 10 µM is 70.7% on human B1R receptor and 86.4% at B1R receptor of the rat.
Turning to `O=C(COCC1CCCCN1S(=O)(=O)c1ccc(Br)cc1)N1CCN(c2ccncc2)CC1` (stereo not shown) [Example 126, 2-((1-(4-bromophenylsulfonyl)piperidin-2-yl)methoxy)-1-(4-(pyridin-4-yl)piperazin-1-yl)ethanone], the inhibition at 10 µM is 46.4% on human B1R receptor and 81.1% at B1R receptor of the rat.
Regarding `CC(C)N(CCN1CCN(C(=O)COCC2CCCCN2S(=O)(=O)c2c(Cl)cccc2Cl)CC1)C(C)C` (stereo not shown) [Example 281, 2-((1-(2,6-dichlorophenylsulfonyl)piperidin-2-yl)methoxy)-1-(4-(2-(diisopropylamino)ethyl)piperazin-1-yl)ethanone], the inhibition at 10 µM on human B1R receptor worked out at 104%; at B1R receptor of the rat, 92.4%.
As for `O=C(COCC1CCCCN1S(=O)(=O)c1cccc(Br)c1)N1CCC(CCN2CCCC2)CC1` (stereo not shown) [Example 124, 2-((1-(3-bromophenylsulfonyl)piperidin-2-yl)methoxy)-1-(4-(2-(pyrrolidin-1-yl)ethyl)piperidin-1-yl)ethanone], the inhibition at 10 µM stood at 76.3% on human B1R receptor and 63.2% on B1R receptor of the rat.
On to `Cc1cc(C)c(S(=O)(=O)N2CCCCC2COCC(=O)N2CCC(N3CCCC3)CC2)c(C)c1` (stereo not shown) [Example 19, 2-((1-(mesitylsulfonyl)piperidin-2-yl)methoxy)-1-(4-(pyrrolidin-1-yl)piperidin-1-yl)-ethanone], for which the inhibition at 10 µM was determined as 95% at human B1R receptor and 98.9% on B1R receptor of the rat.
In the case of `Cc1cc(C)c(S(=O)(=O)N2CCCCC2COCC(=O)Nc2cccc(CN3CCCCC3)c2)c(C)c1` (stereo not shown) [Example 76, N-(3-piperidin-1-ylmethyl-phenyl)-2-[1-(2,4,6-trimethyl-phenylsulfonyl)-piperidin-2-ylmethoxy]-acetamide], the inhibition at 10 µM is 48.9% at human B1R receptor and 40.3% on B1R receptor of the rat.
As for `COc1ccc(S(=O)(=O)N2c3ccccc3CC2COCC(=O)NCC2CCCN(Cc3ccccc3)C2)cc1` (stereo not shown) [Example 422, N-((1-benzylpiperidin-3-yl)methyl)-2-((1-(4-methoxyphenylsulfonyl)indolin-2-yl)methoxy)acetamide], the results for the inhibition at 10 µM at human B1R receptor and at B1R receptor of the rat were 48% and 98.6%, respectively.
As for `Cc1cc(C)c(S(=O)(=O)N2CCCCC2COCC(=O)N2CCC(c3nc4cc(C)ccc4[nH]3)CC2)c(C)c1` (stereo not shown) [Example 222, 2-((1-(mesitylsulfonyl)piperidin-2-yl)methoxy)-1-(4-(5-methyl-1H-benzo[d]imidazol-2-yl)piperidin-1-yl)ethanone], the inhibition at 10 µM on human B1R receptor is 7.55%; on B1R receptor of the rat, 114%.
Consider `O=C(COCC1CCCCN1S(=O)(=O)c1ccc(Cl)c(Cl)c1)N1CCN(c2ccc(F)cc2)CC1` (stereo not shown) [Example 59, 2-[1-(3,4-dichloro-phenylsulfonyl)-piperidin-2-ylmethoxy]-1-[4-(4-fluoro-phenyl)-piperazin-1-yl]-ethanone], for which the inhibition at 10 µM on human B1R receptor was 61.5%; on B1R receptor of the rat, 0%.

These data come from patent US8435978B2, “Substituted sulfonamide compounds” (Gruenenthal GmbH, priority 2006, dated 2013).
